According to article PMC10141580, “Cyclic Dichalcogenides Extend the Reach of Bioreductive Prodrugs to Harness Thiol/Disulfide Oxidoreductases: Applications to seco-Duocarmycins Targeting the Thioredoxin System” (ACS Central Science, 2023):
Read-outs that look alike come from different tables or passages of the source.

Tested on: panel of 140 standard cancer cell lines
Assay: ProliFiler-140 cancer cell line screen (CellTiterGlo, 72 h)
Type: cell-based
Description: Incubations were performed for 72 h before automated viability readout with CellTiterGlo (Figure 8).
End of Figure S11 (part 5 of 5): ProliFiler-140 cancer cell line screening for cytotoxicity of the prodrugs.
8-data-point dose response curves from CellTiter-Glo® viability readout.
ProliFiler-140 cell line panel part V

## COc1cccc2c1C(=O)c1c(O)c3c(c(O)c1C2=O)C[C@@](O)(C(=O)CO)C[C@@H]3O[C@H]1C[C@H](N)[C@H](O)[C@H](C)O1 [doxorubicin, reference compound]
A172 (Brain), listed as Dox, read-out: IC50 [M] (ProliFiler-140)
  IC50: 9.4e-08 M
A375 (Skin), listed as Dox, read-out: IC50 [M] (ProliFiler-140)
  IC50: 4.8e-08 M
A427 (Lung), listed as Dox, read-out: IC50 [M] (ProliFiler-140)
  IC50: 6.56e-08 M
A431 (Skin), listed as Dox, read-out: IC50 [M] (ProliFiler-140)
  IC50: 1.7e-07 M
A549 (Lung), listed as Dox, read-out: IC50 [M] (ProliFiler-140)
  IC50: 3.11e-07 M
A2058 (Skin), listed as Dox, read-out: IC50 [M] (ProliFiler-140)
  IC50: 3.73e-08 M
AsPC-1 (Pancreas), listed as Dox, read-out: IC50 [M] (ProliFiler-140)
  IC50: 1.16e-06 M
BT-20 (Breast), listed as Dox, read-out: IC50 [M] (ProliFiler-140)
  IC50: 2.35e-07 M
BxPC-3 (Pancreas), listed as Dox, read-out: IC50 [M] (ProliFiler-140)
  IC50: 2.8e-07 M
COR-L279 (Lung), listed as Dox, read-out: IC50 [M] (ProliFiler-140)
  IC50: 7.88e-08 M
COV434 (Ovary), listed as Dox, read-out: IC50 [M] (ProliFiler-140)
  IC50: 6.97e-08 M
COV434, COV434 (Ovary), read-out: IC50 [M] (ProliFiler-140)
  IC50: 7e-08 M
Caki-1 (Kidney), listed as Dox, read-out: IC50 [M] (ProliFiler-140)
  IC50: 3.4e-07 M
Caki-2 (Kidney), listed as Dox, read-out: IC50 [M] (ProliFiler-140)
  IC50: 1e-06 M
Calu-6 (Lung), listed as Dox, read-out: IC50 [M] (ProliFiler-140)
  IC50: 7.7e-07 M
DU-145 (Prostate), listed as Dox, read-out: IC50 [M] (ProliFiler-140)
  IC50: 1.52e-07 M
DV90 (Lung), listed as Dox, read-out: IC50 [M] (ProliFiler-140)
  IC50: 1.95e-08 M
EFM-19 (Breast), listed as Dox, read-out: IC50 [M] (ProliFiler-140)
  IC50: 4.73e-07 M
EFM-192A (Breast), listed as Dox, read-out: IC50 [M] (ProliFiler-140)
  IC50: 7.35e-07 M
EFM-192A, EFM-192A (Breast), read-out: IC50 [M] (ProliFiler-140)
  IC50: 7.3e-07 M
EFO-27 (Ovary), listed as Dox, read-out: IC50 [M] (ProliFiler-140)
  IC50: 2.93e-07 M
H4 (Brain), listed as Dox, read-out: IC50 [M] (ProliFiler-140)
  IC50: 8.2e-08 M
H4 (Brain), read-out: IC50 [M] (ProliFiler-140)
  IC50: 8.18e-08 M
H1299 (Lung), listed as Dox, read-out: IC50 [M] (ProliFiler-140)
  IC50: 2.2e-07 M
H2228 (Lung), listed as Dox, read-out: IC50 [M] (ProliFiler-140)
  IC50: 5.7e-08 M
HCC202 (Breast), listed as Dox, read-out: IC50 [M] (ProliFiler-140)
  IC50: 7.65e-07 M
HCC202, HCC202 (Breast), read-out: IC50 [M] (ProliFiler-140)
  IC50: 7.6e-07 M
HCC827 (Lung), listed as Dox, read-out: IC50 [M] (ProliFiler-140)
  IC50: 3.48e-07 M
HCC 1569 (Breast), listed as Dox, read-out: IC50 [M] (ProliFiler-140)
  IC50: 7.01e-07 M
HCT-15 (Colon), listed as Dox, read-out: IC50 [M] (ProliFiler-140)
  IC50: 6.4e-07 M
HEC-1-A (Endometrium), listed as Dox, read-out: IC50 [M] (ProliFiler-140)
  IC50: 3.27e-07 M
HEC-1-B (Endometrium), listed as Dox, read-out: IC50 [M] (ProliFiler-140)
  IC50: 2.37e-06 M
HL-60 (Blood), listed as Dox, read-out: IC50 [M] (ProliFiler-140)
  IC50: 2.65e-08 M
HT-29 (Colon), listed as Dox, read-out: IC50 [M] (ProliFiler-140)
  IC50: 3.69e-07 M
HeLa (Cervix), listed as Dox, read-out: IC50 [M] (ProliFiler-140)
  IC50: 8e-08 M
Hep3B2.1-7 (Liver), listed as Dox, read-out: IC50 [M] (ProliFiler-140)
  IC50: 5.32e-07 M
Hep3B2.1-7 (Liver), read-out: IC50 [M] (ProliFiler-140)
  IC50: 5.3e-07 M
Homo sapiens, 786-0, 786-O (Kidney), read-out: IC50 [M] (ProliFiler-140)
  IC50: 1.15e-07 M
Homo sapiens, 786-0, 786-O, read-out: IC50
  IC50: 1.1e-07 M
Homo sapiens, A 172, A172 (Brain), read-out: IC50 [M] (ProliFiler-140)
  IC50: 9.38e-08 M
Homo sapiens, A498, A498 (Kidney), read-out: IC50 [M] (ProliFiler-140)
  IC50: 3.22e-07 M
Homo sapiens, A498, A498, read-out: IC50
  IC50: 3.2e-07 M
Homo sapiens, A549, A549, read-out: IC50
  IC50: 3.1e-07 M
Homo sapiens, A2058, A2058 (Skin), read-out: IC50 [M] (ProliFiler-140)
  IC50: 3.7e-08 M
Homo sapiens, A2780, A2780 (Ovary), read-out: IC50 [M] (ProliFiler-140)
  IC50: 1.8e-08 M
Homo sapiens, A-375, A375 (Skin), read-out: IC50 [M] (ProliFiler-140)
  IC50: 4.76e-08 M
Homo sapiens, A-427, A427 (Lung), read-out: IC50 [M] (ProliFiler-140)
  IC50: 6.6e-08 M
Homo sapiens, A-431, A431 (Skin), read-out: IC50 [M] (ProliFiler-140)
  IC50: 1.74e-07 M
Homo sapiens, ASPC1, AsPC-1 (Pancreas), read-out: IC50 [M] (ProliFiler-140)
  IC50: 1.2e-06 M
Homo sapiens, BT-20, BT-20 (Breast), read-out: IC50 [M] (ProliFiler-140)
  IC50: 2.3e-07 M
Homo sapiens, BXPC-3, BxPC-3 (Pancreas), read-out: IC50 [M] (ProliFiler-140)
  IC50: 2.78e-07 M
Homo sapiens, CAKI-1, Caki-1 (Kidney), read-out: IC50 [M] (ProliFiler-140)
  IC50: 3.39e-07 M
Homo sapiens, CAKI-2, Caki-2 (Kidney), read-out: IC50 [M] (ProliFiler-140)
  IC50: 1.03e-06 M
Homo sapiens, COR-L279, COR-L279 (Lung), read-out: IC50 [M] (ProliFiler-140)
  IC50: 7.9e-08 M
Homo sapiens, Calu-6, Calu-6 (Lung), read-out: IC50 [M] (ProliFiler-140)
  IC50: 7.69e-07 M
Homo sapiens, DLD-1, DLD-1 (Colon), read-out: IC50 [M] (ProliFiler-140)
  IC50: 1.37e-07 M
Homo sapiens, DU-145, DU-145 (Prostate), read-out: IC50 [M] (ProliFiler-140)
  IC50: 1.5e-07 M
Homo sapiens, DU-145, DU-145, read-out: IC50
  IC50: 1.5e-07 M
